Assay results published in patent publication US7767666B2, “Butyl and butynyl benzyl amine compounds” (Janssen Pharmaceutica NV, priority 2006, dated 2010).

Key:
[1] = target: T1, Rat SERT (Rattus norvegicus, UniProt P31652); experiment: Rat brain SERT [3H]-citalopram binding; conditions: rat brain membranes, 0.6 nM [3H]-Citalopram, 60 min at 25° C.
T1 construct: A rat brain without cerebellum (Zivic Laboratories, Inc.—Pittsburgh, Pa.) was homogenized; tissue Zivic Laboratories, Inc; host or cells: rat brain without cerebellum, membrane preparation
Protocol: The supernatant was removed and re-centrifuged at 15,000 rpm for 30 min. […] Membranes were incubated with 0.6 nM [^3H]-Citalopram plus/minus test compounds for 60 min at 25° C. and harvested by rapid filtration over GF/C glass fiber filters (pretreated with 0.3% polyethylenimine) followed by four washes with ice-cold buffer.

[2] = target: T2, human SERT (Homo sapiens, UniProt P31645); experiment: Human SERT 3H-citalopram binding; conditions: HEK293 membranes expressing the human SERT, rt 1 h
T2 construct: expressed in transfected cells; host or cells: HEK293 membranes
Protocol: Homogenized HEK293 (Human Embryonic Kidney) membranes expressing the human SERT were incubated with ^3H-citalopram (SERT) at rt for 1 h in 50 mM Tris, 120 mM NaCl, 5 mM KCl (pH 7.4). […] The membranes were washed and the radioactivity was counted as above.

[3] = target: T3, human H3 receptor (Homo sapiens, UniProt Q9Y5N1); experiment: Cyclic AMP accumulation (β-galactosidase reporter); format: cell-based; conditions: for Kb: read-out: pA2 (converted); for pA2: SK-N-MC cells expressing human H3 receptor and reporter, histamine agonist, forskolin 5 μM, Schild regression of pEC50 values
T3 construct: expressed in transfected cells
Protocol: Sublines of SK—N-MC cells were created that expressed a reporter construct and the human H3 receptor. The reporter gene (β-galactosidase) is under the control of multiple cyclic AMP responsive elements. In 96-well plates, histamine was added directly to the cell media followed 5 min later by an addition of forskolin (5 μM final concentration). When appropriate, antagonists were added 10 min prior to agonist addition. After a 6-h incubation at 37° C., the media was aspirated and the cells washed with 200 μL of phosphate-buffered saline followed by a second aspiration. Cells were lysed with 25 μL 0.1× assay buffer (10 mM Na-phosphate, pH 8, 0.2 mM MgSO4, 0.01 mM MnCl2) and incubated at rt for 10 min. […] Color was developed using 25 μL of 1 mg/mL substrate solution (chlorophenolred β-D galactopyranoside; Roche Molecular Biochemicals, Indianapolis, Ind.).

[4] = target: T3, human H3 receptor; experiment: H3 receptor binding; conditions: cloned human H3 receptor stably expressed in SK-N-MC cells

T1 sequence (P31652 whole entry): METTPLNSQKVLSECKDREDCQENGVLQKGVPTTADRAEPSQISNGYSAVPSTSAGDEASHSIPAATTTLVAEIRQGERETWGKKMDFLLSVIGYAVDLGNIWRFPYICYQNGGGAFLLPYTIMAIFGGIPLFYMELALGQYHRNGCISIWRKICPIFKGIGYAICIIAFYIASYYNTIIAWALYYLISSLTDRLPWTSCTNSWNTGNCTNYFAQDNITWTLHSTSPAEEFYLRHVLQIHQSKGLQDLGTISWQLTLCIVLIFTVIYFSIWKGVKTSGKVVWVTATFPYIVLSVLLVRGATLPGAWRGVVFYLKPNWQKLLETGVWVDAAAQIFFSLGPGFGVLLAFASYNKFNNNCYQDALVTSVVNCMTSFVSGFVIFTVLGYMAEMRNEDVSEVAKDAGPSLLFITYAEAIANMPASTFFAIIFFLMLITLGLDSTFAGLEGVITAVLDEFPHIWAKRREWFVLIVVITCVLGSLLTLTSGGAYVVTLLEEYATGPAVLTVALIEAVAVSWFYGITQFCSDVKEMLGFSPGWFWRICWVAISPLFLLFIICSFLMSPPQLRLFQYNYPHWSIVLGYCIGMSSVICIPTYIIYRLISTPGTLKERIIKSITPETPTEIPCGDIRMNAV
T3 sequence (Q9Y5N1 whole entry): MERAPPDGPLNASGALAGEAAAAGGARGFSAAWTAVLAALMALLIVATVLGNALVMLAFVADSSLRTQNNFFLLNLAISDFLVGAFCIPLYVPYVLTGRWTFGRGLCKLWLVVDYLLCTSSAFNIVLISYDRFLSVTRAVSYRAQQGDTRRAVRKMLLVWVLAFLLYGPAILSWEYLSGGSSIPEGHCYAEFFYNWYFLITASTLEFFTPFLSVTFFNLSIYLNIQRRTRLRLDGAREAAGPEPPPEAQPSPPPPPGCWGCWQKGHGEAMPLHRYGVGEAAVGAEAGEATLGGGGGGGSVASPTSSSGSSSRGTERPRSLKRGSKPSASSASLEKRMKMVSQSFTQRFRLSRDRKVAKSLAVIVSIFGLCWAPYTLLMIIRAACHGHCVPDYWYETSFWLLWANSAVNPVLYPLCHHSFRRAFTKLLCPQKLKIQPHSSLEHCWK
T2 sequence (P31645 whole entry): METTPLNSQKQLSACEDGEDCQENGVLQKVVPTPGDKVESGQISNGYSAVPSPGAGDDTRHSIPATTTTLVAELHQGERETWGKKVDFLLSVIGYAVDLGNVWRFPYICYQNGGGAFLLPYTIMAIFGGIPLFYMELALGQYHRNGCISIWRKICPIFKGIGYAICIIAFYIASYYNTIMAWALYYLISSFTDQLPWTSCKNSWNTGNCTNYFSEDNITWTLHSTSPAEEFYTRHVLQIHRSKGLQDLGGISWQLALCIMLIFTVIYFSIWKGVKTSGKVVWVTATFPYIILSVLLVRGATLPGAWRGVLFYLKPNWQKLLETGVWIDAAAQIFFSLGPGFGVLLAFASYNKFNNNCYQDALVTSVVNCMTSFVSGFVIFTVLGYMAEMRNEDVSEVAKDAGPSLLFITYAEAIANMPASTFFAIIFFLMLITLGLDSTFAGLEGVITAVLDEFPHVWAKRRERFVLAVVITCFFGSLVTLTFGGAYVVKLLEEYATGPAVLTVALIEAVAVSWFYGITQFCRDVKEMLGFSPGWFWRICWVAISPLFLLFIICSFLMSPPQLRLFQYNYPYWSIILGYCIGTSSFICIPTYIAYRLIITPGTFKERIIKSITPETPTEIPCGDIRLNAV

Row | Kb [3] [nM] | Compound | Ki [1] [nM] | Ki [2] [nM] | Ki [4] [nM] | pA2 [3]
1 | 0.251 | C(#Cc1ccc(Oc2cccnc2)c(CNC2CC2)c1)CCN1CCOCC1 [Example 23, Cyclopropyl-[5-(4-morpholin-4-yl-but-1-ynyl)-2-(pyridine-3-yloxy)-benzyl]-amine] | 18 | 58 | 0.7 | –
2 | – | CNCc1cc(C#CCCN2CCOCC2)ccc1Oc1ccc(C(F)(F)F)cc1 [Example 7, Methyl-[5-(4-morpholin-4-yl-but-1-ynyl)-2-(4-trifluoromethyl-phenoxy)-benzyl]-amine] | 2 | 2.7 | 7.3 | 7.90
3 | – | CNCc1cc(C#CCCN2CCOCC2)ccc1Oc1ccc(F)cc1Cl [Example 28, [2-(2-Chloro-4-fluoro-phenoxy)-5-(4-morpholin-4-yl-but-1-ynyl)-benzyl]-methyl-amine] | 3.4 | 3.6 | 6 | 8.78
4 | – | CNCc1cc(C#CCCN2CCC(F)CC2)ccc1Oc1ccc(SC)cc1 [Example 11, [5-[4-(4-Fluoro-piperidin-1-yl)-but-1-ynyl]-2-(4-methylsulfanyl-phenoxy)-benzyl]-methyl-amine] | 0.6 | 0.9 | 6 | 8.12
5 | – | CNCc1cc(C#CCCN2CCNC(=O)C2)ccc1Oc1ccc(SC)cc1 [Example 19, 4-{4-[3-Methylaminomethyl-4-(4-methylsulfanyl-phenoxy)-phenyl]-but-3-ynyl}-piperazin-2-one] | 0.4 | 1.6 | 864 | –
6 | – | CNCc1cc(C#CCCN2CCOCC2)ccc1Oc1cccc(Cl)c1 [Example 12, [2-(3-Chloro-phenoxy)-5-(4-morpholin-4-yl-but-1-ynyl)-benzyl]-methyl-amine] | 3 | 7.3 | 3 | 8.58
7 | – | CNCc1cc(C#CCCN2CCCN(C(C)C)CC2)ccc1Oc1ccc(SC)cc1 [Example 20, [5-[4-(4-Isopropyl-[1,4]diazepan-1-yl)-but-1-ynyl]-2-(4-methylsulfanyl-phenoxy)-benzyl]-methyl-amine] | 0.7 | 3.6 | 93 | –
8 | – | CNCc1cc(C#CCCN(C)C2CC2)ccc1Oc1ccc(Cl)c(Cl)c1 [Example 18, Cyclopropyl-{4-[4-(3,4-dichloro-phenoxy)-3-methylaminomethyl-phenyl]-but-3-ynyl}-methyl-amine] | 6.4 | 5.9 | 9.7 | –
9 | – | CNCc1cc(C#CCCN2CCSCC2)ccc1Oc1ccc(Cl)c(Cl)c1 [Example 26, [2-(3,4-Dichloro-phenoxy)-5-(4-thiomorpholin-4-yl-but-1-ynyl)-benzyl]-methyl-amine] | 5.7 | 6.7 | 13 | –
10 | – | CNCc1cc(C#CCCN2CCOCC2)ccc1Oc1ccc(C)nc1 [Example 24, Methyl-[2-(6-methyl-pyridin-3-yloxy)-5-(4-morpholin-4-yl-but-1-ynyl)-benzyl]-amine] | 1.9 | 5 | 4 | –
11 | – | CNCc1cc(C#CCCN2CCSCC2)ccc1Oc1ccc(SC)cc1 [Example 9, Methyl-[2-(4-methylsulfanyl-phenoxy)-5-(4-thiomorpholin-4-yl-but-1-ynyl)-benzyl]-amine] | 0.9 | 2.5 | 5.4 | –
12 | – | CNCc1cc(CCCCN2CCSCC2)ccc1Oc1ccc(SC)cc1 [Example 34, Methyl-[2-(4-methylsulfanyl-phenoxy)-5-(4-thiomorpholin-4-yl-butyl)-benzyl]-amine] | 0.9 | 1.9 | 9.7 | –
13 | 3.16 | CNCc1cc(C#CCCN2CCOCC2)ccc1Oc1ccccn1 [Example 30, Methyl-[5-(4-morpholin-4-yl-but-1-ynyl)-2-(pyridine-2-yloxy)-benzyl]-amine] | 200 | – | 6 | –
14 | – | CNCc1cc(C#CCCNC2CC2)ccc1Oc1ccc(Cl)c(Cl)c1 [Example 15, Cyclopropyl-{4-[4-(3,4-dichloro-phenoxy)-3-methylaminomethyl-phenyl]-but-3-ynyl}-amine] | 1.8 | 1.4 | 17 | –
15 | – | CNCc1cc(C#CCCN2CCOCC2)ccc1Oc1ccc(Cl)c(C(F)(F)F)c1 [Example 27, [2-(4-Chloro-3-trifluoromethyl-phenoxy)-5-(4-morpholin-4-yl-but-1-ynyl)-benzyl]-methyl-amine] | 7.3 | 17 | 13 | 7.89
16 | – | CNCc1cc(C#CCCN2CCC(F)CC2)ccc1Oc1ccc(Cl)c(Cl)c1 [Example 29, {2-(3,4-Dichloro-phenoxy)-5-[4-(4-fluoro-piperidin-1-yl)-but-1-ynyl]-benzyl}-methyl-amine] | 2.1 | 27 | 14 | –
17 | – | CNCc1cc(C#CCCN2CCOCC2)ccc1Oc1cccc(F)c1 [Example 8, [2-(3-Fluoro-phenoxy)-5-(4-morpholin-4-yl-but-1-ynyl)-benzyl]-methyl-amine] | 10 | 24 | 3 | 8.45
18 | – | CNCc1cc(C#CCCN2CCOCC2)ccc1Oc1ccc(Cl)c(Cl)c1 [Example 1, [2-(3,4-Dichloro-phenoxy)-5-(4-morpholin-4-yl-but-1-ynyl)-benzyl]-methyl-amine] | 2.4 | 1.8 | 11 | –
19 | – | CNCc1cc(C#CCCN(C)C2CC2)ccc1Oc1ccc(SC)cc1 [Example 16, Cyclopropyl-methyl-{4-[3-methylaminomethyl-4-(4-methylsulfanyl-phenoxy)-phenyl]-but-3-ynyl}-amine] | 1.3 | 1.1 | 6.1 | 9.10
